Source: patent publication US20120172344A1, “INSULIN-PRODUCING CELL INDUCER, GLUCOSE INTAKE ENHANCER, AND THERAPEUTIC AGENT FOR DIABETES OR DIABETES COMPLICATIONS” (KYUSHU UNIVERSITY, NATIONAL UNIVERSITY CORPORATION, priority 2009, published 2012)

Tested on: muscles (soleus muscle) of Tg23 mice
Assay: Experimental Example 3: glucose (2-deoxy-D-glucose) intake of soleus muscles
Type: in vivo, mouse
Conditions: isolated soleus muscles of WT and Tg mice incubated in KRB buffer with vs without insulin, 10 minutes at 30° C.
Method: Mice were sacrificed, and extensor digitorum longus (EDL) muscles and soleus muscles were quickly removed and processed. Both ends of each of the muscles were tied with suture (silk 4-0), and mounted on an incubation apparatus. First, the muscles were preincubated for 20 minutes in 6 ml of Krebs-Ringer bicarbonate (KRB) buffer (117 mM NaCl, 4.7 mM KCl, 2.5 mM CaCl2, 1.2 mM KH2PO4, 1.2 mM MgSO4, 24.6 mM NaHCO3, pH 7.5) containing 2 mM pyruvate. Then, the muscles were incubated in KRB buffer in presence or absence of insulin.
Immediately after muscle incubation, the muscles were transferred to KRB buffer containing 1 mM 2-deoxy-D-[^3H]glucose (1.5 μCi/ml) and 7 mM D-[^14C]mannitol (0.3 μCi/ml) (PerkinElmer Life Sciences) at 30° C., and incubated again for 10 minutes. When using insulin, a buffer containing insulin was used for incubation in a similar manner.
Glucose transport was terminated by dipping the muscles in KRB buffer containing 80 μmol/L cytochalasin B at 4° C., and then the muscles were frozen in liquid nitrogen. The muscles were weighed, and digested by incubating in 250 μl of 1 M NaOH at 80° C. for 10 minutes. Digests were neutralized with 250 μl of 1 M HCl. […] Radioactivity in aliquots of the digested muscle was determined by liquid scintillation counting for dual labels, and extracellular and intracellular spaces were calculated. […]

Substance: insulin
- amount of glucose intake of muscles in presence (+) of insulin: increased
